The target in one assay is histamine-H1 receptors (Cavia porcellus, UniProt P31389). Description: Histamine-H1 receptor binding assay ([3H]-mepyramine). As to conditions: guinea pig cerebellum membranes, 0.7 nM [3H]-mepyramine. The method, then: (§1) (1) Histamine-H1 Receptor Binding Assay
The study of binding to histamine-H1 receptors was performed in guinea pig cerebellum membranes as described by Chang et al., J. Neurochem, 1979, 32, 1653-1663. Briefly, the membrane suspensions (160 μg/ml) were incubated at 30° C. with 0.7 nM [^3H]-mepyramine and different concentrations of the test compounds in a final volume of 250 μl. Binding reactions were terminated by filtration after 30 min of incubation and the bound radioactivity was determined. The non-specific binding was measured in the presence of 10 μM of promethazine. The affinity of each test compound to the receptor was determined by using at least six different concentrations run in duplicate. IC50 values were obtained by non-linear regression by use of SAS on a DEC AXP computer.

The target of the next assay is T1, serotonin-5HT2 receptors (Homo sapiens, UniProt P28223).
T1 construct: performed in human frontal cerebral cortex membranes; from tissue; host or cells: human frontal cerebral cortex membranes
T1 sequence (P28223 whole entry): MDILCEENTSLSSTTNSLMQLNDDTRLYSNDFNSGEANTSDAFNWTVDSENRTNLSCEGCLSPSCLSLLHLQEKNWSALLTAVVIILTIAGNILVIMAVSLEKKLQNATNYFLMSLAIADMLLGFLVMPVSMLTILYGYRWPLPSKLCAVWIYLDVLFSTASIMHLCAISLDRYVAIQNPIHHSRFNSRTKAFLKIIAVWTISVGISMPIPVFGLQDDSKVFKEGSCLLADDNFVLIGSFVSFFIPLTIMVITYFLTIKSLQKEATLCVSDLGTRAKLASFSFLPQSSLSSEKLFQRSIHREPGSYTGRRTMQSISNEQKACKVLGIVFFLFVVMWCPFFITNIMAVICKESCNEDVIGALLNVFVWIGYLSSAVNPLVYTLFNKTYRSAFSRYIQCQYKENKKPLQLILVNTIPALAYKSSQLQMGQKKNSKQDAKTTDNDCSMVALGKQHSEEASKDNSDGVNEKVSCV
Description: Serotonin-5HT2 receptor binding assay (3H-Ketanserin). As to conditions: human frontal cerebral cortex membranes, 1 nM 3H-Ketanserin; read-out: 5HT-2. The method, then:
as §1
(3) Serotonin-5HT2 Receptor Binding Assay
The study of binding to serotonin-5HT2 receptors was performed in human frontal cerebral cortex membranes as described previously (Pazos et al., Eur. J. of Pharmacol, 1985, 106, 531-538). Briefly, the membrane suspensions (170 μg/ml) were incubated at 37° C. with 1 nM 3H-Ketanserin and different concentrations of the test compounds in a final volume of 250 μl. Binding reactions were terminated by filtration after 30 minutes of incubation under constant shaking and the bound radioactivity was measured. The non-specific binding was estimated in the presence of 10 μM mianserin. The affinity of each test compound to the receptor was determined by using at least six different concentrations run in duplicate. IC50 values were calculated by non-linear regression using SAS.

The subject of assay [1] is histamine-induced papule (skin vascular permeability). Description: Histamine-induced skin vascular permeability in rats. The conditions noted are these: male Wistar rats, oral, 4 h after administration, inhibition of papule area vs vehicle. Type of assay: in vivo, rat. The method, then: as §1
(2) Histamine-Induced Skin Vascular Permeability in Rats
Male Wistar rats (180-210 g) were treated orally with the test compound or vehicle. Either one, four, eight or 24 hours later the rats were lightly anaesthetised with ether and a cutaneous reaction was induced by two intradermal injections of 50 μl of histamine (100 μg/ml) onto the back, followed by an intravenous injection of 3 ml/kg of Evan's Blue (5 mg/ml), both dissolved in saline. Sixty minutes later, the rats were killed by cervical dislocation and the back skin dissected free. The diameter (in millimetres) of the papule was measured in two directions and the area was calculated. Results are given as the % of inhibition at a given dose compared with the vehicle treated group.

Some results are limits rather than exact numbers.

Chain of histamine-H1 receptors (P31389 whole entry): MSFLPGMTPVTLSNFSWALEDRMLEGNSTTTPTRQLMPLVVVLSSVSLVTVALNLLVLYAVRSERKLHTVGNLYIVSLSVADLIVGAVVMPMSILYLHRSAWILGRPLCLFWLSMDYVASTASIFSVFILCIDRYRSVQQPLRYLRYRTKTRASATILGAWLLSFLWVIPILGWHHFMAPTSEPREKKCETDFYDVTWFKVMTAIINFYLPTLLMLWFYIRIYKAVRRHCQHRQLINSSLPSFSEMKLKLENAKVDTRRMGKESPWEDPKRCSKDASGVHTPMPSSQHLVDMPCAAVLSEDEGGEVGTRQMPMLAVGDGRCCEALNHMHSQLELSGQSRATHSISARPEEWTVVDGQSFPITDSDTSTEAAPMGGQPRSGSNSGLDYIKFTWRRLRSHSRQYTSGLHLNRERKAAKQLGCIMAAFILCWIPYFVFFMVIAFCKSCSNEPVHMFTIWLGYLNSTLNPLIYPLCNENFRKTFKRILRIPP

Consider `CCOCCn1cc(C2CCN(Cc3ccc(OC)c(C(=O)O)c3)CC2)c2ccccc21` [Example 1, 5-{4-[1-(2-ethoxyethyl)-1H-indol-3-yl]piperidin-1-ylmethyl}-2-methoxybenzoic acid], for which the IC50 at histamine-H1 receptors amounted to 145 nM; on serotonin-5HT2 receptors, 5350 nM. The “papule (4h) % inh a 1 mg/Kg” value in assay [1] stood at 88%.
In the same order, the values of `COCCn1cc(C2CCN(Cc3ccc(OC)c(C(=O)O)c3)CC2)c2ccccc21` [Example 2, 2-methoxy-5-{4-[1-(2-methoxyethyl)-1H-indol-3-yl]piperidin-1-ylmethyl}benzoic acid] are 470 nM, above 10000 nM and 96%.
In the same order, the values of `CCCCn1cc(C2CCN(Cc3ccc(OC)c(C(=O)O)c3)CC2)c2ccccc21` [Example 3, 5-[4-(1-butyl-1H-indol-3-yl)-piperidin-1-ylmethyl]-2-methoxybenzoic acid] are 130 nM, 4500 nM and 100%.
As for `CCOCCn1cc(C2CCN(Cc3ccc(OC)c(C(=O)O)c3)CC2)c2ccc(F)cc21` [Example 4, 5-{4-[1-(2-ethoxyethyl)-6-fluoro-1H-indol-3-yl]piperidin-1-ylmethyl}-2-methoxybenzoic acid], the IC50 on histamine-H1 receptors came out at 160 nM; on serotonin-5HT2 receptors, 4300 nM. Also, the “papule (4h) % inh a 1 mg/Kg” value in assay [1] is on record as 89%.
As for `COCCn1cc(C2CCN(Cc3ccc(OC)c(C(=O)O)c3)CC2)c2ccc(F)cc21` [Example 5, 5-{4-[6-fluoro-1-(2-methoxyethyl)-1H-indol-3-yl]piperidin-1-ylmethyl}-2-methoxybenzoic acid], the IC50 is 245 nM at histamine-H1 receptors and above 10000 nM on serotonin-5HT2 receptors. Also, the “papule (4h) % inh a 1 mg/Kg” value in assay [1] came to 96%.
